Data set [1] concerns P388 lymphocytic leukemia cells. The experiment in a line: Growth inhibition of tumor cells in vitro. The following applies: Mus musculus, 48 hours at 37° C., read-out: IC50 (50% inhibitory concentration of cell growth). The format is cell-based. As to the method:
(I) Growth Inhibition of Tumor Cells in Vitro:
Tumor cells were collected aseptically with capillary tube from ascites in CDF1 male mice transplanted intraperitoneally with 1×10^6 cells of P388 lymphocytic leukemia 5 days Before. Cell suspension was prepared at 5×10^4 cells/0.5 ml in a RPMI1640 medium supplemented with 10% fetal calf serum, Kanamycin (0.1 mg/ml) and 2-hydroxyethyldisulfide (0.01 mm). Each sample was dissolved or suspended in the medium at a concentration of 1×10^-1 -1×10^-5 mM/ml.
A test tube with Molton stopper loosely involving 0.5 ml each of the cell suspension and the sample suspension was kept for 48 hours at 37° C. in an incubator supplied with air containing 5% carbon dioxide. Then, after addition of 4 ml of 0.25% trypsin solution, the tube was shaken for 5 minutes at 37° C. The cells harvested therefrom was counted by using of a Coulter Counter and the inhibition of cell growth was calculated by the following formula: [formula] T: number of cells in the culture containing test compound. C: number of cells in the culture of control
50% Inhibitory concentration of cell growth (IC50) was calculated based on the inhibition in various concentrations of test compound and is shown in Table I.

Data set [2] relates to P388 lymphocytic leukemia. The experiment in a line: Increase in life span on tumor-transplanted mouse (P388). The format is in vivo, mouse (CDF1). Conditions: intraperitoneal, 1 day after transplantation and on 5th day. The method, then:
(II) Increase in Life Span on Tumor-transplanted Mouse: The treated group to which the compound of the present invention was administered consisted of seven mice, while the control group consisted of ten mice. Six weeks old male mice (CDF1, 25±2 g of body weight) were employed as host animals.
Tumor cells (1.0×10^6) of P388 lymphocytic leukemia were transplanted intraperitoneally into each mouse. The treatment was effected one day after the transplantation and on 5th day by administering prescribed dose of each test compound intraperitoneally to the mice.
Antitumor activity of the test compound was evaluated by the rate of increase in life span (ILS) which was calculated with the following formula. [formula] T': median survival time of treated mice C': median survival time of control mice

Data set [3] in a line: Acute toxicity test in mice. Conditions: mouse, in vivo, ip; male ICR mice, intraperitoneal, observed for 14 days, Litchfield-Wilcoxon method. The method, then: The acute toxicity of the compounds of the present invention was examined by the following test.
The test group to which the compound of the present invention was administered consisted of ten mice. Five weeks old male mice (ICR, 25±2 g of body weight) were employed as test animals.

The results in this text go back to US4877803A, “Bis-dioxopiperazine derivatives and pharmaceutical compositions containing the same” (Zenyaku Kogyo Kabushiki Kaisha, priority 1985, dated 1989).

`CC(CN1CC(=O)N(CN2CCOCC2)C(=O)C1)N1CC(=O)N(CN2CCOCC2)C(=O)C1` (racemic) [(B), dl-1,2-bis(4-morpholinomethyl-3,5-dioxopiperazin-1-yl)propane]: the IC50 in data set [1] is 1600 nM. Also, the “ILS (rate of increase in life span)” value in data set [2] (daily dose 3.0 mg/kg) amounted to 1%; in data set [2] (daily dose 200 mg/kg (adequate dose)), 47%.

As a reminder, the LD50 is the dose at which mortality reaches 50%. High values mean lower toxicity, low ones greater toxicity. As for `C[C@H]([C@H](C)N1CC(=O)N(CN2CCOCC2)C(=O)C1)N1CC(=O)N(CN2CCOCC2)C(=O)C1` [(1), meso-2,3-bis(4-morpholinomethyl-3,5-dioxopiperazin-1-yl)butane], the IC50 in data set [1] worked out at 61 nM. In data set [2] (daily dose 3.0 mg/kg), the “ILS (rate of increase in life span)” value amounted to 165%. This compound also gave an LD50 at 336 h in data set [3] of 10.7 mg/kg.

For `C[C@H]([C@H](C)N1CC(=O)N(CN2CCSCC2)C(=O)C1)N1CC(=O)N(CN2CCSCC2)C(=O)C1` [(2), meso-2,3-bis(4-thiomorpholinomethyl-3,5-dioxopiperazin-1-yl)butane], in data set [1], the IC50 turned out to be 230 nM. The “ILS (rate of increase in life span)” value in data set [2] (daily dose 1.8 mg/kg) was > 194%.

On to `C[C@H]([C@H](C)N1CC(=O)N(CN2CCN(c3ccccc3)CC2)C(=O)C1)N1CC(=O)N(CN2CCN(c3ccccc3)CC2)C(=O)C1` [(3), meso-2,3-bis[4-(N-phenylpiperazinomethyl)-3,5-dioxopiperazin-1-yl]butane], for which the IC50 in data set [1] worked out at 22 nM. Besides, the “ILS (rate of increase in life span)” value in data set [2] (daily dose 3.4 mg/kg) worked out at 78%.

`C[C@H]([C@H](C)N1CC(=O)N(CN2CCCCC2)C(=O)C1)N1CC(=O)N(CN2CCCCC2)C(=O)C1` [(4), meso-2,3-bis(4-piperoidinomethyl-3,5-dioxopiperazin-1-yl)butane]: in data set [1], the IC50 worked out at 47 nM.

As for `CC1CC(C)CN(CN2C(=O)CN([C@H](C)[C@H](C)N3CC(=O)N(CN4CC(C)CC(C)C4)C(=O)C3)CC2=O)C1` (stereo partly drawn) [(5), meso-2,3-bis[4-(3,5-dimethylpiperidinomethyl)-3,5-dioxopiperazin-1-yl]butane], in data set [1], the IC50 came to 12 nM.

`O=C1CN(CCN2CC(=O)N(CN3CCOCC3)C(=O)C2)CC(=O)N1CN1CCOCC1` [(A), 1,2-bis(4-morpholinomethyl-3,5-dioxopiperazin-1-yl)ethane]: the IC50 in data set [1] worked out at 2400 nM. The “ILS (rate of increase in life span)” value in data set [2] (daily dose 3.0 mg/kg) is on record as 2%; in data set [2] (daily dose 100 mg/kg (adequate dose)), 60%.
